Data as given in PMC12459314, “Subcutaneous administration of a novel TRPM8 antagonist reverses cold hypersensitivity while attenuating the drop in core body temperature” (British journal of pharmacology, 2024).
Where “and” joins values, the source holds several entries; their conditions need not be identical. Equal values may be shown once. Read-outs that look alike come from different tables or passages of the source.

Key:
[1] = target: T1, human TRPV1 (Homo sapiens, UniProt Q8NER1); assay: FlexStation Ca2+ flux assay in HEK293T cells transfected with human TRPV1; type: cell-based
T1 construct: expressed in transfected cells; host or cells: HEK293T
Protocol: The human embryonic kidney cell line (HEK293T, CRL-1573, RRID: CVCL_0045) was purchased from the American Type Culture Collection (Manassas, USA) and was maintained in Dulbecco’s Minimal Essential Medium (DMEM, Cellgro10013CV, Corning, Tewksbury, USA) that was supplemented with 10% fetal bovine serum (Gemini Bio-products), 2-mM L-glutamine (Invitrogen) and 100 U/mL penicillin and streptomycin (Invitrogen) and cultured in an incubator at 37°C, 5% CO2 and 95% humidity. Human TRPV1 and TRPA1 plasmid DNA (gift from D. Julius) were transiently bulk transfected individually into HEK293T cells using the FuGene HD transfection reagent (TFR, Promega, Madison, WI, USA) at a 3:1 ratio (TFR:DNA). […] The plate was transferred to a FlexStation 3 microplate reader. Relative fluorescence units (RFUs) (Ex. 485 nm, Em 525 nm) were then acquired at 37°C in the kinetic mode. The run time for the agonist (1st) and antagonist (2nd) reads were 60 s each, for a total run time of 120 s, with an interval of 3.1 s between reads in the same well to allow all 16 wells in a column to be read sequentially, and the photomultiplier tube (PMT) level was set at medium, with 6 flashes per read. Baseline Fluo-6 RFUs were acquired for 18 s prior to the addition of compound in both the agonist and antagonist reads. For the first addition agonist read, the volume in the well was 50 μl, the pipette height was set at 40 μl, and 12.5 μl of the test compound was delivered at a speed of 2 μl·s^−1 after the baseline RFU’s acquisition period at 19 s, and the RFUs were acquired for an additional 41 s. For the second addition antagonist read, the volume in the well was 62.5 μl, the pipette height was set at 40 μl, and 12.5 μl of an EC80 agonist concentration was delivered at a speed of 2 μl/s after the baseline RFU’s acquisition period at 19 s, and the RFUs were acquired for an additional 41 s. […]

[2] = test system: human TRPM8; set-up: method as in Journigan et al., 2020; settings: ref Journigan et al., 2020, cited from earlier work
[3] = Brain levels in vivo by UPLC-MS/MS; set-up: species or system rat
Protocol: VBJ103 levels in the brain were determined by PsychoGenics Inc (Paramus, USA). VBJ103 and vehicle solutions were administered subcutaneously at a dose of 100 mg·kg^−1. Male and female Sprague–Dawley rats (200–250 g) supplied by Envigo were used in this study and housed three per cage (26 cm × 47.6 cm × 20.3 cm) upon arrival. Rats with jugular vein catheters (JVC) were housed two per cage with a divider to prevent damage to catheters. Cages contained BedO’-Cob® bedding with Nylabones® for enrichment. Rats were acclimatised for 2 to 7 days prior to commencing studies. All rats were examined, handled and weighed prior to initiation of the study to assure adequate health and suitability. During the course of the study, 12/12 light/dark cycles were maintained with lights on at 6 AM. The room temperature was maintained between 20°C and 23°C with a relative humidity maintained around 50%. Chow (Lab diet 5001, LabDiet, St. Louis, MO, USA) and water were provided ad libitum throughout the acclimatisation period and during the treatment and collection period. Rats were randomly assigned to the experimental groups.
UPLC-MS/MS analysis was performed on a ODS 3 Inertsil C18 column 2.1 × 50 mm, 2 μm (GL Sciences 5020–84652), using a gradient of 40:60 solvent A (H2O + 0.5% formic acid):solvent B (ACN + 1.0% formic acid) → 0:100 for 2 min at a flow rate of 0.5 ml·min^−1. The following parameters were used: injection volume 5 μl, column temperature 40°C, pre-column temperature 40°C and sample temperature 4°C. Eluted peaks were monitored with a Waters Xevo TQ-XS coupled to an Acquity i-Class Plus UPLC setup (range: 334.19 Da to 155.04 and 198.08 Da). RT = 1.15 min. The range of quantitation was 0.25 to 10,000 ng·ml^−1 for brain. The software Masslynx V4.2 SCN1012 was used for instrument control and data acquisition.
Brain collection was performed via live decapitation. Whole brains were collected at 1 h following administration and upon completion of serial collections (24 h). Resultant brains were rinsed in saline and frozen immediately on a cold plate (−77°C) before placement into a pre-weighed specimen container. Brain weights were then determined prior to placement of the samples on dry ice followed by relocation to a −80°C freezer pending bioanalysis.
Pre-weighed whole brain tissue was homogenized (Omni Prep multichannel tissue homogenizer) using a 1:1 MilliQ water (containing 0.2% acetic acid)/acetonitrile mixture which was added to the brain using a 4:1 solution to brain ratio. Subsequently, the homogenate was centrifuged for 10 min at 4°C at a speed of 2688 g. Three 25-μl aliquots out of the top layer of the centrifuged homogenate were crashed into three QuanRecovery wells, each containing 150 μl of acetonitrile/internal standard. The crash was then centrifuged for 20 min at 2688 g while maintaining a temperature of 4°C. Mixing of the resultant supernatant with water (3:2) provided samples for triplicate analysis. Brain standards, quality controls (QCs) and blanks were prepared using a male Sprague–Dawley brain acquired from BioIVT using the same protocol outlined above. All standards, QCs, samples and blanks were then loaded onto the UPLC-MS/MS for analysis.
The concentration of VBJ103/mass was based on brain weights. The volume of the homogenate was based on a 4:1 dilution of the brains. The volumes of homogenate was calculated based on brain weights in Table S13.

T1 sequence (Q8NER1 whole entry): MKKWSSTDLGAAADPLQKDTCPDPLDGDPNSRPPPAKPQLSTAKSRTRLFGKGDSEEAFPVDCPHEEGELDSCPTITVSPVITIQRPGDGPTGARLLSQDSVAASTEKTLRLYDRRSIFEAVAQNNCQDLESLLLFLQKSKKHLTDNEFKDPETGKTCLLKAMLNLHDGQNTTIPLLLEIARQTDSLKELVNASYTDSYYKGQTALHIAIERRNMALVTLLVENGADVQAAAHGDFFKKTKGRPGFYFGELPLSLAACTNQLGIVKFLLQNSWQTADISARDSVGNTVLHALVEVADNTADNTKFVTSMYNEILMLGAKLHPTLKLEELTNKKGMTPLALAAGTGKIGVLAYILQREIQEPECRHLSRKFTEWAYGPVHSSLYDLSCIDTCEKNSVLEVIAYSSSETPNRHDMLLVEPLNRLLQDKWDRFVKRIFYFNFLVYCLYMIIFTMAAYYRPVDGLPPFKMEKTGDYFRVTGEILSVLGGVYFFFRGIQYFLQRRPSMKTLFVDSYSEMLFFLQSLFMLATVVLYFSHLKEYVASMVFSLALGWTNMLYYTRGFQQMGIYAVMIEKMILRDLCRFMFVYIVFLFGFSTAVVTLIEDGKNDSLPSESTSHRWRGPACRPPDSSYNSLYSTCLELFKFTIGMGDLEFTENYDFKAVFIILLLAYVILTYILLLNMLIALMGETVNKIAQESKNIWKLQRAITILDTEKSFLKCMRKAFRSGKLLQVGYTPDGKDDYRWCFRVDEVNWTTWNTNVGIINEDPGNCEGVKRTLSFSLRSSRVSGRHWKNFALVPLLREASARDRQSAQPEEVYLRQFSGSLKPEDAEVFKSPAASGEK

- agonist activity at TRPV1 ([1]; compound alone): no apparent agonist activity
- inhibition of the Ca2+ signal at TRPV1 ([1]; evoked with an EC80 concentration (0.1 μM) of capsaicin): Nor was there a detectable inhibition
- concentration at 1 h ([3]; female SD rats (animals 26-28), 100 mg/kg SC, 1 h, 100 mg/kg, read-out: brain levels, individual animals): 39 nM and 51 nM
- concentration at 1 h ([3]; female, Sprague-Dawley, rat, brain, sc, 100 mg/kg, female SD rats (animals 26-28), 100 mg/kg SC, 1 h, read-out: brain levels, individual animals): 40 nM
- concentration at 1 h ([3]; female, Sprague-Dawley, rat, brain, sc, 100 mg·kg^−1, female rats, 100 mg·kg−1 s.c., 1 h per Table S12, read-out: mean brain concentration): 43 ± 4 nM
- concentration at 1 h ([3]; male SD rats (animals 23-25), 100 mg/kg SC, 1 h, 100 mg/kg, read-out: brain levels, individual animals): 47 nM and 56 nM
- concentration at 1 h ([3]; male, Sprague-Dawley, rat, brain, sc, 100 mg/kg, male SD rats (animals 23-25), 100 mg/kg SC, 1 h, read-out: brain levels, individual animals): 53 nM
- concentration at 1 h ([3]; male, Sprague-Dawley, rat, brain, sc, 100 mg·kg^−1, male rats, 100 mg·kg−1 s.c., 1 h per Table S12, read-out: mean brain concentration): 52 ± 2 nM
SMILES: O=C(NC1CCC2(CCCC2)CC1)c1ccc(-c2ccccc2)cc1 [VBJ103, N-(Spiro[4.5]decan-8-yl)-[1,1′-biphenyl]-4-carboxamide]
- IC50 ([2]; against menthol-stimulated currents): 64 ± 2 nM
- selectivity for human TRPM8 versus TRPA1 and TRPV1 ([2]; heterologously expressed channels): ~ 10 fold
- concentration at 1 h ([3]; female SD rats (animals 13-16), 100 mg/kg SC, 24 h, 100 mg/kg, read-out: brain levels, individual animals): 14.6 nM and 11.9 nM and 7.1 nM and 8.1 nM
- concentration at 1 h ([3]; male SD rats (animals 9-12), 100 mg/kg SC, 24 h, 100 mg/kg, read-out: brain levels, individual animals): 6.9 nM and 7.9 nM and 3.9 nM and 4.9 nM
